According to US20070111251A1, “Chemical address tags” (priority 2003, published 2007):

How the values were obtained:
[1] = system: mitochondria; experiment: QSLR factorial logistic regression of mitochondrial localization (affinity coefficients, cross-validated prediction); set-up: species or system human; conditions: for αi^mito: influence of A group on mitochondrial localization, greater = stronger; for estimated A group affinity coefficient ai / estimated B group affinity coefficient bj: mitochondrial affinity; for estimated A group affinity coefficient ai: ±5 for groups always or never mitochondrial; for βj^mito: influence of B group on mitochondrial localization
Text: The first column and first row contain the A group and B group labels. The second column and second row contain the estimated A group and B group affinity coefficients (ai and bj respectively). The interior of the table contains the value sij=ai+bj for each compound (where positive values of sij indicate predicted localization to mitochondria, and negative values of sij indicate predicted localization to a non-mitochondrial compartment). The subscript m indicates experimentally determined mitochondrial localization. The subscript o indicates experimentally determined non-mitochondrial localization. The darkened boxes indicate correctly predicted mitochondrial localizations under cross-validation.
Based on this matrix, factorial logistic regression (See, A. Agresti, Categorical Data Analysis, Wiley [2002]) was used to calculate mitochondrial affinity coefficients (ai and bj) for each A and B moiety. (Table 1). Since it is not necessary to observe all possible pairings between A and B building blocks to estimate the affinity coefficients, the QSLR approach can predict localization of unmeasured styryl molecules based on a minimal set of experimentally-determined localizations (see Methods). The methods of the present invention allow assessment of predictivity using the cross-validation technique by holding out one compound and fitting the affinity coefficients using the remaining compounds, predictivity can be assessed by comparing the actual localization of the held-out compound to its predicted localization. Repeating this for every measured compound in the library yields an error rate for the procedure.
Briefly, this technique assigns quantitative scores to each A group (αi^mito) and to each B group (βj^mito), in such a way that αi^mito+βj^mito is positive for compounds with mitochondrial localization, and is negative for compounds lacking mitochondrial localization. […] In additional embodiments, same analysis can be applied to organelles other than mitochondria, provided there are a sufficient number of localizations to specific non-mitochondrial organelles in the combinatorial library of interest for reliable statistical calculations.
In certain embodiments, the predictive performance of the above method was assessed using a cross-validation approach by calculating the proportion of all compounds that are correctly predicted. For cross-validation, each styryl product was set aside in sequence, and the factorial logistic model was fit to the remaining data. Then the resulting A and B scores for the held-out compound were summed. If the sum was positive, the held-out compound was predicted to be mitochondrial, while if the sum was negative, the held-out compound was predicted to be non-mitochondrial. […] The baseline performance of the method scored 104 correct out of 145, or 72%. This number is highly statistically significant compared to random guessing (p-value ˜10^−7). Thus, across the entire library, A and B moieties appear to contribute to localization in an independent, additive fashion.
In some embodiments, subcellular localization data were converted to binary (0/1) values by assigning a value Gij=1 if compound i,j localized to mitochondria (even if it localized to other […] as well), and assigning Gij=0 if compound i,j localized exclusively to any non-mitochondrial cellular structure. Compounds with no localization were omitted from this part of the analysis. The αi and βj coefficients for A or B groups that are always observed to localize to mitochondria, or that never localize to mitochondria, were set to +/−5, respectively. The binary localization data were analyzed using factorial logistic regression. […]

[2] = Additive decomposition of peak excitation and emission wavelengths (model coefficients of A and B groups); conditions: for αi^em: influence of A group on peak emission wavelength; for αi^em / αi^ex: A group 1 as baseline; for αi^ex: influence of A group on peak excitation wavelength; for βj^em: influence of B group on peak emission wavelength; for βj^em / βj^ex: B group 1 as baseline; for βj^ex: influence of B group on peak excitation wavelength
Text: The chemical structure of the styryl library is illustrated in FIG. 3. […] Initial analysis focused on measurements of peak emission and excitation wavelength obtained for all styryl products showing a single, localized peak (there were 256 such compounds for emission wavelength, and 193 compounds for excitation wavelength). […] The wavelength for the styryl compound formed by joining A group i with B group j is denoted as λij (or more specifically, λij^ex for excitation wavelength and λij^em for emission wavelength). The additive model λij=ai+βj+εij was fit to the data using least squares yielding parameters αi^ex, αi^em, βj^ex, and βj^em that quantify the influence of each A and B group on the spectrum of the styryl product. […] (FIGS. 8A-8B). […] The predictions were made ignoring interactions between the two functional moieties in the styryl compound. The predicted values were obtained without bias, by holding out the data point to be predicted when training the model.
In preferred embodiments, using the cross-validation approach disclosed herein, each compound was held out in sequence, the model was trained using the remaining compounds, then the wavelength value for the held-out compound was predicted based on the resulting fitted model. This process produced correlations between measured and predicted values of ρ^em=0.78 (emission) and ρ^ex=0.69 (excitation).
Based on this analysis, the contribution of the A and B functional groups to the fluorescence of the styryl product is quantified using the fitted coefficients αi^ex, βj^ex, […], and βj^em. Since these coefficients are on a scale without origin, in some embodiments, the invention uses the first A group and B group as a baseline, so […], β1^ex=0, and so on. Table 3 contains the model coefficients of all A and B groups for peak excitation and emission wavelength.
Greater values of αi^ex, αi^em, βj^ex, and βj^em indicate greater peak wavelength. Greater values of αi^mito and […] indicate stronger mitochondrial localization. A groups 40 and 41 were not screened for localization. A groups 2, 29, and 33 only formed fluorescent products with a single B group, so were not included in the spectral analysis.
In some embodiments, the wavelength values for peak excitation and emission were fit to the additive model λij=αi+βj+εij, where εij denotes error that is made as small as possible in the fitting process. Using least squares to minimize the function [formula] over all compounds having experimental data yields coefficient estimates αi for each A group and βj for each B group. One set of coefficient estimates is obtained for the excitation values and another set is obtained for the emission values. To predict the wavelength of a new compound formed from A and B groups i* and j* the sum αi*+βj* is used.
In some embodiments, for both the spectral and localization analysis, cross-validation was used to obtain unbiased estimates of the prediction performance. Each compound was held out in sequence, and the coefficients αi and βj were fit to the remaining compounds. These values were then used to form a prediction for the held out compound, then the predicted and experimental values were compared to obtain a measure of the accuracy of prediction. Since the wavelength values are on a continuous scale, the predicted values were compared to the experimental values using Pearson correlation coefficients. The localization values are dichotomous, so the proportion of matching predictions was used to compare predicted and experimental localization values.

Structure (SMILES)	αi^mito [1]	estimated A group affinity coefficient ai [1]	influence of group on peak wavelength [2]	αi^em [2]	αi^ex [2]	βj^mito [1]	estimated B group affinity coefficient bj [1]	βj^em [2]	βj^ex [2]
CN(C)c1ccc(C=CC=O)cc1 [A group 37]	−0.9	−0.9	strongly contribute towards the red end of the spectrum	122.1 nm	82.9 nm				
COc1cc(OC)c(OC)cc1C=O [A group 38]	−1.3	−1.3		22.2 nm	−15.6 nm				
O=Cc1ccc2c(c1)OCO2 [A group 39]	0.0	0.0		−25.3 nm	−28.3 nm				
Cc1cc[n+](C)cc1.[I-] [B group 1]						1.9	1.9	0.0 nm	0.0 nm
Cc1cc[n+](C23CC4CC(CC(C4)C2)C3)cc1.[Br-] [B group 2]						2.0	2.0	4.3 nm	4.9 nm
Cc1cccc[n+]1C.[I-] [B group 3]						4.2	4.2	−2.7 nm	−12.7 nm
Cc1ccc[n+](C)c1C.[I-] [B group 4]						3.0	3.0	−23.2 nm	−32.3 nm
CCc1ccc(C)[n+](C)c1.[I-] [B group 5]						2.2	2.3	−7.6 nm	−1.6 nm
Cc1cc[n+](C)c(Br)c1.[I-] [B group 6]						−5.0	−5.0	3.5 nm	27.7 nm
Cc1cc[n+](C)c2ccccc12.[I-] [B group 7]			strongly contribute towards the red end of the spectrum			3.5	3.5	63.7 nm	29.6 nm
Cc1ccc2ccccc2[n+]1C.[I-] [B group 8]			strongly contribute towards the red end of the spectrum			0.4	0.4	64.8 nm	53.0 nm
COc1ccc2c(ccc(C)[n+]2C)c1.[I-] [B group 9]			strongly contribute towards the red end of the spectrum			−2.0	−2.0	35.0 nm	−0.1 nm
Cc1ccnc(-c2cc(C)cc[n+]2C)c1.[I-] [B group 10]						0.8	0.8	19.8 nm	1.6 nm
Cc1cc[n+](C)c(C)c1.[I-] [B group 11]						2.1	2.1	−4.1 nm	−4.2 nm
Cc1cccc(C)[n+]1C.[I-] [B group 12]						2.7	2.7	−1.7 nm	−10.2 nm
Cc1cc(C)[n+](C)c(C)c1.[I-] [B group 13]						2.5	2.5	−1.8 nm	−1.1 nm
Cc1cnc2c(ccc3c(C)c(C)c[n+](C)c32)c1C.[I-] [B group 14]			strongly contribute towards the red end of the spectrum			0.0	0.1	57.9 nm	100.6 nm
